What was measured:
human PXR = biological target: T1, human PXR (Homo sapiens, UniProt O75469); test: HG5LN PXR reporter cell line, antagonist mode in presence of SR12813; format: cell-based; conditions: read-out: PXR (SR12813 300 nM) IC50; in presence of SR12813 300 nM; NE = No effect
T1 construct: The GAL4-NR chimeric cell lines provide uniform cellular model differing just in receptor LBDs; expressed in transfected cells; host or cells: HG5LN PXR (HeLa-derived; described in Delfosse et al., 2015)
T1 sequence (O75469 146-433 limits assumed): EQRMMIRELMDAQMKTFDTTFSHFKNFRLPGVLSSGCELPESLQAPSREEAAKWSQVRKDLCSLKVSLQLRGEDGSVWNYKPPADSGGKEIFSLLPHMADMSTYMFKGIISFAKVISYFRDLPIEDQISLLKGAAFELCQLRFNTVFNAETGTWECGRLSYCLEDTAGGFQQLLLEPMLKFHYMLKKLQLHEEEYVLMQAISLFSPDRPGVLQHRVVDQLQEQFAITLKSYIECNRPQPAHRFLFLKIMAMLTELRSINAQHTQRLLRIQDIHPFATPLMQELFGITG
Procedure: To characterize the specificity of chemicals for human FXR, LXRα, LXRβ, CAR and RORγ, we established in a similar manner HG5LN FXR, LXRα, LXRβ, CAR WT, CAR (APYLT) and RORγ reporter cell lines. […] These cells were stably transfected by pSG5-GAL4 (DBD)-NRs (LBD)-puromycin plasmid and selected in presence of 0.5 µg/ml puromycin. […] From each HG5LN NR cells, 5 to 10 clones were chosen for their ligand inducibility of luciferase expression. […] The most inducible clones were expanded and rechecked for inducibility and aliquots were frozen at different passages. One clone per receptor was maintained in culture and used for ligand screening. HG5LN cells were cultured in Dulbecco’s modified Eagle’s medium (DMEM): Nutrient Mixture F-12 (DMEM/F-12) containing phenol red and 1 g/l glucose and supplemented with 5% fetal bovine serum, 100 units/ml of penicillin, 100 µg/ml of streptomycin and 1 mg/ml geneticin, in 5% CO2 humidified atmosphere at 37°C. Stably transfected cell lines derived from HG5LN cells were cultured in the same culture medium supplemented with 0.5 µg/ml puromycin.
(§1) Individual reporter cell lines were seeded at a density of 40,000 cells per well in 96-well white opaque tissue culture plates (Greiner CellStar) in Dulbecco’s Modified Eagle Medium: Nutrient Mixture F-12 (DMEM/F-12) without phenol red and 1 g/l glucose and supplemented with 5% stripped fetal bovine serum, 100 units/ml of penicillin, 100 µg/ml of streptomycin (test medium). Chemicals to be tested were added 24h later, and cells were incubated at 37°C for 16h. Experiments were performed in quadruplicates. At the end of the incubation period, culture medium was replaced with test medium containing 0.3 mM luciferin solution. Luciferase activity was measured for 2s in intact living cells after 10 min stabilization using a Micro Beta Wallac luminometer (PerkinElmer). EC50 values were calculated using GraphPad Prism (GraphPad Software Inc).
Chemicals tested for agonism on FXR, LXRs, CAR (+ APYLT), PXR, and antagonism on CAR and RORγ were tested alone, without addition of any other ligand.
In the transactivation assay, each compound was tested at various concentrations in three independent experiments at least. For each experiment, tests were performed in quadruplicates for each concentration, and data are expressed by means values with standard deviations. Individual agonist dose–response curves, in the absence and presence of antagonist, were fitted using the sigmoid dose-response function of a graphics and statistics software program (GraphPad Prism, version 5.0). EC50 (effective concentration for half-maximal luciferase activity) and IC50 (half-maximal inhibitory concentration) values were calculated from equations used to fit the data in this graphic software. Transactivation data are presented as EC50 and IC50 values for each compound tested. To analyze significances, we compared individual compound treatments with controls using one-way analysis of variance (ANOVA) with the help of GraphPad Prism software.

HG5LN parental cell line = test: Non-specific modulation of luciferase expression in HG5LN parental cell line; format: cell-based, human; conditions: HG5LN parental cells lacking Gal4-NRs; Figure S2
Procedure: HG5LN and HG5LN PXR cells have already been described ([Delfosse et al., 2015]). To characterize the specificity of chemicals for human FXR, LXRα, LXRβ, CAR and RORγ, we established in a similar manner HG5LN FXR, LXRα, LXRβ, CAR WT, CAR (APYLT) and RORγ reporter cell lines. HG5LN are HeLa cells stably transfected by the (GAL4RE)5-βGlob-Luc-SVNeo plasmid ([Seimandi et al., 2005]). These cells were stably transfected by pSG5-GAL4 (DBD)-NRs (LBD)-puromycin plasmid and selected in presence of 0.5 µg/ml puromycin. […] From each HG5LN NR cells, 5 to 10 clones were chosen for their ligand inducibility of luciferase expression. We noted that the basal activity in absence of ligand strongly differed among NRs. FXR, LXRs, and CAR APYLT had the lowest basal activities, whereas CAR and RORγ had the highest. The most inducible clones were expanded and rechecked for inducibility and aliquots were frozen at different passages. One clone per receptor was maintained in culture and used for ligand screening. HG5LN cells were cultured in Dulbecco’s modified Eagle’s medium (DMEM): Nutrient Mixture F-12 (DMEM/F-12) containing phenol red and 1 g/l glucose and supplemented with 5% fetal bovine serum, 100 units/ml of penicillin, 100 µg/ml of streptomycin and 1 mg/ml geneticin, in 5% CO2 humidified atmosphere at 37°C. Stably transfected cell lines derived from HG5LN cells were cultured in the same culture medium supplemented with 0.5 µg/ml puromycin.
as §1
To evaluate the FXR, LXRα, LXRβ, PXR, CAR, and RORγ specificity of pharmaceutical chemicals, we established HG5LN reporter cell lines expressing human FXR, LXRα, LXRβ, CAR, CAR (+ APYLT), and RORγ. Then, we tested the agonistic/antagonistic potential of 22 commercially available pharmaceutical compounds ( Figure S1 ) on these cells and in the previously established PXR cell line ([Delfosse et al., 2015]). The 22 chemicals were first tested for non-specific modulation of luciferase expression on the HG5LN parental cell line, which contains the same reporter gene as HG5LN-GAL4-NRs cells, but lacks of Gal4-NRs. […] The basal (in absence of ligand) and the maximal (in presence of NR-specific full agonist) activities of HG5LN and the different HG5LN GAL4-NRs were measured. […] The expression of FXR induced the slight repression of basal transcription, while both LXRs and PXR had no effect, or just slightly activated the basal transcription ( Figure 1 ). Consequently, the baseline activities were normalized as percentage of maximal activity mediated by full agonists, as follows: 6% for FXR, 8% for LXRα, 9% for LXRβ, 19% for PXR ( Table 1 ). On the contrary, the basal activity was increased by the expression of CAR and RORγ. Due to the inherent constitutive activity, we determined this activity equal to 100% as the specific agonists were not able to reveal their transactivation potential alone, but they were able to reverse the inhibition caused by antagonists/reverse agonists. To characterize easily CAR agonists, we used cell line expressing a variant of CAR (CAR + APYLT) with reduced basal ([Auerbach et al., 2003]). […]

## CC(C)c1onc(-c2c(Cl)cccc2Cl)c1COc1ccc(/C=C/c2cccc(C(=O)O)c2)c(Cl)c1 [GW4064]
Human PXR
  IC50: > 10 µM
HG5LN parental cell line
  Nonspecific activation of luciferase expression in HG5LN parental cell line: significant nonspecific activation

## SPA70
HG5LN parental cell line
  Toxicity (non-specific decrease of luciferase expression) in HG5LN parental cell line: most toxic

## COc1cccc(Cn2cc(C(=O)Nc3ccc(C)c(S(=O)(=O)N4CCOCC4)c3)c(-c3ccc(C)cc3)n2)c1 [DY268]
Human PXR
  IC50: > 10 µM
HG5LN parental cell line
  Nonspecific activation of luciferase expression in HG5LN parental cell line: significant nonspecific activation

## Clc1ccccc1C(c1ccccc1)(c1ccccc1)n1ccnc1 [Clotrimazole, clotrimazole]
HG5LN parental cell line
  Toxicity (non-specific decrease of luciferase expression) in HG5LN parental cell line: most toxic

## Fc1ccc(-c2c3cccc(C(F)(F)F)c3nn2Cc2ccc(F)cc2Cl)cc1 [WAY252623]
HG5LN parental cell line
  Nonspecific activation of luciferase expression in HG5LN parental cell line: significant nonspecific activation

## Cc1cc(C)c(S(=O)(=O)N(Cc2ccc(-c3cccc(S(C)(=O)=O)c3)cc2)Cc2ccc(C(F)(F)F)o2)c(C)c1 [GSK2033]
HG5LN parental cell line
  Nonspecific activation of luciferase expression in HG5LN parental cell line: significant nonspecific activation

## CC(=O)Nc1nc(C)c(S(=O)(=O)Nc2ccc(C(O)(C(F)(F)F)C(F)(F)F)cc2)s1 [SR1001]
Human PXR
  IC50: > 10 µM

## O=C(Nc1ccc(C(O)(C(F)(F)F)C(F)(F)F)cc1)c1ccc(C(F)(F)F)cc1 [SR1078]
Human PXR
  IC50: > 10 µM

## Cc1oc2ccccc2c1CNC(=O)NCc1cccs1 [S07662]
Human PXR
  IC50: > 10 µM

## COC(=O)/C=C/c1cccc(N(Cc2ccc(-c3ccc(N(C)C)cc3)cc2)C(=O)C2CCCCC2)c1 [Feraxamine]
Human PXR
  IC50: > 10 µM

## Clc1ccc(-c2nc3sccn3c2/C=N/OCc2ccc(Cl)c(Cl)c2)cc1 [CITCO]
HG5LN parental cell line
  Nonspecific activation of luciferase expression in HG5LN parental cell line: significant nonspecific activation
